In assay [1] the test system is SW480. In words: Antiproliferative activity against human SW480 cells at 10 uM after 24 hrs by MTS assay relative to control. Conditions: SW480, 24 h. Format: functional. (In general: Formazan colour is commonly taken as a measure of viable cells.)
For assay [2], the target named is T1, Tyrosine-protein phosphatase non-receptor type 1 (Homo sapiens, UniProt P18031).
T1 sequence (P18031 whole entry): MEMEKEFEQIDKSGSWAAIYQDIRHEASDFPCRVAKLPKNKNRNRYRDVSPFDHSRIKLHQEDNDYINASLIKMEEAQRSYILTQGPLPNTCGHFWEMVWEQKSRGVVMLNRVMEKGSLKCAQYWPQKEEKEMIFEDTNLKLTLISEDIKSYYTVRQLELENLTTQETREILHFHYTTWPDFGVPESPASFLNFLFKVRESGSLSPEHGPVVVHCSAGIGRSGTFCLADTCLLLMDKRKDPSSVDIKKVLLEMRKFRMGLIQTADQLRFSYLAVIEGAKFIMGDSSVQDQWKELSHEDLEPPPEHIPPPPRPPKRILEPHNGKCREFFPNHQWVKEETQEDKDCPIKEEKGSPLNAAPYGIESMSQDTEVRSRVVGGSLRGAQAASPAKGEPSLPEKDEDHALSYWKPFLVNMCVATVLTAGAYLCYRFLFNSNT
In words: (§1) Inhibition of recombinant human PTP1B using pNPP as substrate after 30 mins.

Assay [3] deals with T2, Tyrosine-protein phosphatase non-receptor type 1 (Homo sapiens) (UniProt P18031).
T2 sequence (whole entry): T1 sequence (P18031 whole entry)
The description is as §1.

Assay [4] has as its system RAW264.7. In words: Antiinflammatory activity against mouse RAW264.7 cells assessed as inhibition of LPS-induced nitric oxide production at 10 uM after 24 hrs by Griess assay relative to control. Format: functional. Conditions: RAW264.7, 24 h.
In assay [5] the target is T3, Tyrosinase (Homo sapiens) (UniProt P14679).
T3 sequence (whole entry): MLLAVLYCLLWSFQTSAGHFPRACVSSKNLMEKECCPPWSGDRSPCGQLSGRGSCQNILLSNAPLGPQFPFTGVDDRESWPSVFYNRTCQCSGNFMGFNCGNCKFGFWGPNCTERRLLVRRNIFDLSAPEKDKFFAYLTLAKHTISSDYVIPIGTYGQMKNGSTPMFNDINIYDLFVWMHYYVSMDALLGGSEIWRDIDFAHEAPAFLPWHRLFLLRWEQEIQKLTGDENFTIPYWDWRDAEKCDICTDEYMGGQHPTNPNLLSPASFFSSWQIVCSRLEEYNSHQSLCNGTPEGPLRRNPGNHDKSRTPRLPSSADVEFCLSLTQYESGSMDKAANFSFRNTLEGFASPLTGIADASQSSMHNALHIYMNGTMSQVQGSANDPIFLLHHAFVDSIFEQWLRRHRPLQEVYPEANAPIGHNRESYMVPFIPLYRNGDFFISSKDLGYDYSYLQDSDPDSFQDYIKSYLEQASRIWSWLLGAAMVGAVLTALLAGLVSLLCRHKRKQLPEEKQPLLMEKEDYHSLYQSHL
Conditions: at 10 µM.
Description: Inhibition of tyrosinase (unknown origin) using L-tyrosine as substrate at 10 uM preincubated for 15 mins followed by substrate addition relative to control

Assay [6] has as its system Homo sapiens. Kind of assay: Inhibition of LPS-induced NF-kappaB (unknown origin) transactivation expressed in human SW480 cells at 10 uM administered 1 hr after LPS stimulation measured after 6 hrs by luciferase reporter gene assay relative to control. Format: cell-based. In general terms: A reporter such as luciferase makes a cellular process visible.
Assay [7] addresses T2, Tyrosine-protein phosphatase non-receptor type 1 (Homo sapiens). Conditions: at 10 µM.
Description: Inhibition of recombinant human PTP1B using pNPP as substrate at 10 uM after 30 mins relative to control
Assay [8] has as its system A549. Kind of assay: Antiproliferative activity against human A549 cells at 10 uM after 24 hrs by MTS assay relative to control. Format: functional. Conditions: A549, 24 h.
Assay [9] concerns HepG2. Kind of assay: Antiproliferative activity against human HepG2 cells at 10 uM after 24 hrs by MTS assay relative to control. Format: functional. Conditions: HepG2, 24 h.
In assay [10] the test system is MCF7. In words: Antiproliferative activity against human MCF7 cells at 10 uM after 24 hrs by MTS assay relative to control. Conditions: MCF7, 24 h. Format: functional.
Assay [11] can be described thus: Inhibition of LPS-induced NF-kappaB (unknown origin) transactivation expressed in human SW480 cells administered 1 hr after LPS stimulation measured after 6 hrs by luciferase reporter gene assay. Format: cell-based.
The target in assay [12] is T4, Tyrosinase (Homo sapiens, UniProt P14679).
T4 sequence (P14679 whole entry): T3 sequence (whole entry)
In words: Inhibition of tyrosinase (unknown origin) using L-tyrosine as substrate preincubated for 15 mins followed by substrate addition.

By inhibition is commonly meant the percentage by which the read-out fell short of the control. As usually defined, the IC50 is the midpoint of a concentration-inhibition curve. For `CC(C)=CCc1c(O)ccc([C@@H]2COc3c(ccc4c3C=CC(C)(C)O4)C2)c1O` [HISPAGLABRIDIN A], the inhibition at 10 µM in [1] amounted to 34.9%; in [4], 4%; in assay [8] it was 47.6%; in [9], 26.7%; in assay [10], 21.9%. Moreover, in assay [2], the 50% inhibitory concentration (IC50) fell in the range of 5 to 7.9 µM. Moreover, the inhibition result was “Dose-dependent effect” in assay [3], 0% in [5], 13.3% in [6] and 80.3% in assay [7].

Turning to `CC(C)=CCc1cc(/C=C/C(=O)c2ccc(O)c(CC=C(C)C)c2O)ccc1O` [KANZONOL C], the inhibition at 10 µM in [1] was found to be 35.6%; in [4], 12.8%; in assay [8] it was 58%; in [9], 31.7%; in assay [10] it was 55.8%. Also, in assay [2], the IC50 was in the range of 5 to 7.9 µM. The inhibition result in assay [3] was “Dose-dependent effect”; in assay [5], 0%; in [6], 0%; in assay [7], 75.8%.

As for `CC1(C)C=Cc2cc(/C=C/C(=O)c3ccc(O)cc3O)ccc2O1`, the inhibition at 10 µM was 7.9% in assay [1]; 0% in [4]; 2.6% in assay [8]; 11.1% in [9]; 45.7% in assay [10]. Further, the half-maximal inhibitory concentration (IC50) in assay [11] amounted to 5.5 µM. Also, the inhibition in [5] came out at 4.4%; in [6] it was 60.7%; in assay [7], 56.5%.

Regarding `CC(C)=CCc1cc([C@@H]2CC(=O)c3ccc4c(c3O2)C=CC(C)(C)O4)ccc1O` [SHINFLAVANONE], the inhibition at 10 µM in assay [1] stood at 25%; in assay [4], 11.3%; in assay [8], 5.1%; in assay [9], 16.9%; in [10] it was 36.5%. Also, the IC50 in [2] fell in the range of 5 to 7.9 µM. For the same molecule, the inhibition result was “Dose-dependent effect” in assay [3], 3.2% in assay [5], 15.5% in [6] and 62.6% in assay [7].

Consider `CC(C)=CCc1cc([C@@H]2CC(=O)c3ccc(O)c(CC=C(C)C)c3O2)ccc1O` [GLABROL], for which the inhibition at 10 µM came out at 13.6% in assay [1]; 14.7% in [4]; 3.2% in assay [8]; 51.3% in [9]; 48% in assay [10]. Further, the IC50 in assay [2] fell in the range of 5 to 7.9 µM. In addition, the inhibition result in assay [3] was “Dose-dependent effect”; in assay [5], 2.3%; in [6] it was 28.2%; in [7] it was 65.1%.

For the molecule `CC(C)=CCc1cc(/C=C/C(=O)c2ccc3c(c2O)C=CC(C)(C)O3)ccc1O`, the inhibition at 10 µM came to 4.9% in assay [1]; 7.2% in [4]; 2% in assay [8]; 10.6% in [9]; 15.6% in [10]. Moreover, in assay [2], the IC50 was 5 to 7.9 µM. Besides, the inhibition result in [3] was “Dose-dependent effect”; in assay [5] it was 0%; in [6] it was 3.4%; in assay [7], 84.5%.

As to `CC(C)=CCc1c(O)ccc2c1O[C@H](c1ccc3c(c1)C=CC(C)(C)O3)CC2=O`, the inhibition at 10 µM in assay [1] amounted to 34.8%; in [4], 0%; in [8] it was 0%; in [9], 76.5%; in [10], 71.2%. In addition, in [2], the IC50 is 5 to 7.9 µM. Besides, the inhibition entry in assay [3] is “Dose-dependent effect”; in [5], 3.1%; in [6], 44.7%; in [7], 71%.

For the molecule `CC1(C)C=Cc2cc3cc(-c4ccc(O)cc4O)c(=O)oc3cc2O1`, the inhibition at 10 µM in assay [1] was 18.1%; in assay [4] it was 21.2%; in assay [8], 0%; in [9], 14.4%; in [10], 24.5%. In assay [12], 2.8 µM corresponded to half-maximal inhibition (IC50). Further, the figures for the inhibition in assay [5], in assay [6] and in assay [7] were 84%, 0% and 56.9%, respectively.

Take `CC(C)=CCc1cc(/C=C/C(=O)c2ccc(O)cc2O)ccc1O` [LICOAGROCHALCONE A]: the inhibition at 10 µM in [1] turned out to be 18.3%; in [4] it was 31.6%; in [8], 6.4%; in [9] it was 33.9%; in assay [10] it was 35.4%. The same molecule gave a half-maximal inhibitory concentration (IC50) in [11] of 6.2 µM. The inhibition was determined as 22.6% in [5], 69% in [6] and 17.2% in assay [7].

Turning to `COc1ccc(C2COc3c(ccc(O)c3CC=C(C)C)C2=O)c(O)c1` (centres undefined), the inhibition at 10 µM was determined as 27.8% in [1]; 18.1% in assay [4]; 9.4% in assay [8]; 50.3% in assay [9]; 8.7% in assay [10]. In addition, in assay [12], the half-inhibitory concentration (IC50) was 5.1 µM. The inhibition stood at 68.3% in [5], 0% in [6] and 9.9% in assay [7].

Turning to `CC1(C)C=Cc2c(ccc3cc(-c4ccc(O)cc4O)oc23)O1`, the inhibition at 10 µM in assay [1] was determined as 27.6%; in [4], 14.2%; in [8], 0%; in [9], 12.3%; in assay [10], 20.4%. Further, the inhibition was 66.9% in assay [5], 17% in [6] and 73.1% in assay [7].

Turning to `O=C1C[C@@H](c2ccc(O)cc2)Oc2cc(O)cc(O)c21` [NARINGENIN], the inhibition at 10 µM in assay [1] amounted to 0%; in assay [4], 0%; in assay [8], 0.3%; in [9], 34.5%; in assay [10] it was 16.8%. Moreover, the inhibition in assay [5] is 2.2%; in assay [6], 0%; in [7], 4.1%.

For the molecule `CC(C)=CCc1cc([C@@H]2CC(=O)c3ccc(O)cc3O2)ccc1O` [ABYSSINONE II], the inhibition at 10 µM amounted to 0% in [1]; 10.5% in assay [4]; 0% in assay [8]; 44.2% in assay [9]; 42.3% in [10]. Also, the inhibition in [5] is 7.8%; in assay [6], 56.6%; in [7], 4.2%.

Take `CC1(C)C=Cc2cc(C[C@@H](O)C(=O)c3ccc(O)cc3O)ccc2O1`: the inhibition at 10 µM in assay [1] was determined as 1.9%; in assay [4], 9.3%; in assay [8] it was 6.4%; in assay [9], 12.3%; in [10], 19.3%. The inhibition came out at 1% in [5], 0% in [6] and 0.2% in [7].

Regarding `CC(C)=CCc1cc(C[C@@H](O)C(=O)c2cc(CC=C(C)C)c(O)cc2O)ccc1O`, the inhibition at 10 µM worked out at 24.6% in [1]; 0% in assay [4]; 46.1% in [8]; 5.8% in assay [9]; 42.1% in assay [10]. In addition, the inhibition in [5] was 8.3%; in assay [6], 24.3%; in assay [7] it was 27%.

For `CC(C)=CCc1cc([C@H]2Oc3cc(O)ccc3C[C@H]2O)ccc1O`, the inhibition at 10 µM is 32.7% in assay [1]; 1.8% in assay [4]; 13.3% in [8]; 7.3% in assay [9]; 18.6% in [10]. The inhibition in assay [5] came to 14.3%; in assay [6] it was 9.8%; in assay [7], 10.4%.

These data come from ChEMBL document CHEMBL4052601, “Glycybridins A-K, Bioactive Phenolic Compounds from Glycyrrhiza glabra” (J Nat Prod, 2017).
